Test results reported in PubChem BioAssay AID1963964 (Molecular Pharmacology Branch, DTP, NCI, 2024).

Tested on: 997726-040-R-J2-PDC tumor spheroids, viability
Assay: Anticancer human tumor 997726-040-R-J2-PDC patient-derived squamous cell lung carcinoma cell line growth inhibition [PI3K]
Settings: spheroids with HUVEC and MSC; for IC50: curve of first compound; for viability, T/C: stronger effect = lower value
How it was run: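 Tumor cells grown as multi-cell spheroids with HUVEC endothelial cells and MSC fibroblast-like stroma were treated with targeted agents combined with inavolisib, alpelisib, duvelisib or copanlisib. Doses fell in half-log steps from near clinical Cmax, else from 10 microM. Viability was measured.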

[1] = second compound 0.00316 µM, first compound 0.0316 µM
[2] = second compound 0.00316 µM, first compound 0.1 µM
[3] = second compound 0.00316 µM, first compound 0.316 µM
[4] = second compound 0.00316 µM, first compound 1 µM
[5] = second compound 0.00316 µM, first compound 3.16 µM
[6] = second compound 0.00316 µM, first compound 10 µM
[7] = second compound 0.01 µM, first compound 0.0316 µM
[8] = second compound 0.01 µM, first compound 0.1 µM
[9] = second compound 0.01 µM, first compound 0.316 µM
[10] = second compound 0.01 µM, first compound 1 µM
[11] = second compound 0.01 µM, first compound 3.16 µM
[12] = second compound 0.01 µM, first compound 10 µM
[13] = second compound 0.0316 µM, first compound 0.0316 µM
[14] = second compound 0.0316 µM, first compound 0.1 µM
[15] = second compound 0.0316 µM, first compound 0.316 µM
[16] = second compound 0.0316 µM, first compound 1 µM
[17] = second compound 0.0316 µM, first compound 3.16 µM
[18] = second compound 0.0316 µM, first compound 10 µM
[19] = second compound 0.1 µM, first compound 0.0316 µM
[20] = second compound 0.1 µM, first compound 0.1 µM
[21] = second compound 0.1 µM, first compound 0.316 µM
[22] = second compound 0.1 µM, first compound 1 µM
[23] = second compound 0.1 µM, first compound 3.16 µM
[24] = second compound 0.1 µM, first compound 10 µM
[25] = second compound 0.316 µM, first compound 0.0316 µM
[26] = second compound 0.316 µM, first compound 0.1 µM
[27] = second compound 0.316 µM, first compound 0.316 µM
[28] = second compound 0.316 µM, first compound 1 µM
[29] = second compound 0.316 µM, first compound 3.16 µM
[30] = second compound 0.316 µM, first compound 10 µM
[31] = second compound 1 µM, first compound 0.0316 µM
[32] = second compound 1 µM, first compound 0.1 µM
[33] = second compound 1 µM, first compound 0.316 µM
[34] = second compound 1 µM, first compound 1 µM
[35] = second compound 1 µM, first compound 3.16 µM
[36] = second compound 1 µM, first compound 10 µM
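Note: spheroids exposed to compounds for seven days before readout.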

**Q.** For `CC1(C)CCC(CN2CCN(c3ccc(C(=O)NS(=O)(=O)c4ccc(NCC5CCOCC5)c([N+](=O)[O-])c4)c(Oc4cnc5[nH]ccc5c4)c3)CC2)=C(c2ccc(Cl)cc2)C1` + COc1c(OCCCN2CCOCC2)ccc2c3n(c(=NC(=O)c4cnc(N)nc4)nc12)CCN3, which IC50 (second compound 0.00316 µM) is on record?
**A.** 6890 nM

**Q.** And the IC50 (second compound 0.01 µM)?
**A.** 4200 nM

**Q.** What about the IC50 (second compound 0.0316 µM) of the same compound?
**A.** < 31.6 nM

**Q.** And the IC50 (second compound 0.1 µM)?
**A.** < 31.6 nM

**Q.** And the IC50 (second compound 0.316 µM)?
**A.** < 31.6 nM

**Q.** And the IC50 (second compound 1 µM)?
**A.** < 31.6 nM

**Q.** What about the viability, T/C [1] of the same compound?
**A.** 75.4%

**Q.** What about the viability, T/C [2] of the same compound?
**A.** 77.4%

**Q.** What about the viability, T/C [3] of the same compound?
**A.** 74.3%

**Q.** What about the viability, T/C [4] of the same compound?
**A.** 81.1%

**Q.** And the viability, T/C [5]?
**A.** 78.2%

**Q.** And the viability, T/C [6]?
**A.** 36.9%

**Q.** What about the viability, T/C [7] of the same compound?
**A.** 62%

**Q.** And the viability, T/C [8]?
**A.** 64.6%

**Q.** And the viability, T/C [9]?
**A.** 68.4%

**Q.** And the viability, T/C [10]?
**A.** 60.7%

**Q.** What about the viability, T/C [11] of the same compound?
**A.** 57.4%

**Q.** What about the viability, T/C [12] of the same compound?
**A.** 28.9%

**Q.** What about the viability, T/C [13] of the same compound?
**A.** 35.3%

**Q.** What about the viability, T/C [14] of the same compound?
**A.** 36.5%

**Q.** What about the viability, T/C [15] of the same compound?
**A.** 37.8%

**Q.** And the viability, T/C [16]?
**A.** 37.7%

**Q.** What about the viability, T/C [17] of the same compound?
**A.** 34.3%

**Q.** What about the viability, T/C [18] of the same compound?
**A.** 21.2%

**Q.** And the viability, T/C [19]?
**A.** 23.1%

**Q.** And the viability, T/C [20]?
**A.** 22.9%

**Q.** And the viability, T/C [21]?
**A.** 21.8%

**Q.** And the viability, T/C [22]?
**A.** 23%

**Q.** What about the viability, T/C [23] of the same compound?
**A.** 20.6%

**Q.** And the viability, T/C [24]?
**A.** 9.14%

**Q.** And the viability, T/C [25]?
**A.** 4.52%

**Q.** What about the viability, T/C [26] of the same compound?
**A.** 6.09%

**Q.** And the viability, T/C [27]?
**A.** 3.55%

**Q.** What about the viability, T/C [28] of the same compound?
**A.** 3.55%

**Q.** And the viability, T/C [29]?
**A.** 3.34%

**Q.** And the viability, T/C [30]?
**A.** 2.27%

**Q.** What about the viability, T/C [31] of the same compound?
**A.** 1.34%

**Q.** And the viability, T/C [32]?
**A.** 1.27%

**Q.** What about the viability, T/C [33] of the same compound?
**A.** 0.77%

**Q.** What about the viability, T/C [34] of the same compound?
**A.** 0.81%

**Q.** And the viability, T/C [35]?
**A.** 1.49%

**Q.** What about the viability, T/C [36] of the same compound?
**A.** 1.38%

**Q.** What does the source list for `C[C@@H](NC(=O)c1ncnc(N)c1Cl)c1ncc(C(=O)Nc2cc(C(F)(F)F)c(Cl)cn2)s1` + COc1c(OCCCN2CCOCC2)ccc2c3n(c(=NC(=O)c4cnc(N)nc4)nc12)CCN3?
**A.** IC50 (second compound 0.00316 µM): > 10000 nM; IC50 (second compound 0.01 µM): > 10000 nM; IC50 (second compound 0.0316 µM): < 31.6 nM; IC50 (second compound 0.1 µM): < 31.6 nM; IC50 (second compound 0.316 µM): < 31.6 nM; IC50 (second compound 1 µM): < 31.6 nM; viability, T/C [1]: 79.8%; viability, T/C [2]: 104%; viability, T/C [3]: 93.6%; viability, T/C [4]: 96.8%; viability, T/C [5]: 86%; viability, T/C [6]: 57.2%; viability, T/C [7]: 64.1%; viability, T/C [8]: 71.6%; viability, T/C [9]: 66.7%; viability, T/C [10]: 68.9%; viability, T/C [11]: 58.2%; viability, T/C [12]: 54.8%; viability, T/C [13]: 44%; viability, T/C [14]: 42.9%; viability, T/C [15]: 45.7%; viability, T/C [16]: 47.9%; viability, T/C [17]: 39.6%; viability, T/C [18]: 34.1%; viability, T/C [19]: 26.7%; viability, T/C [20]: 25.6%; viability, T/C [21]: 27.1%; viability, T/C [22]: 29.2%; viability, T/C [23]: 25.6%; viability, T/C [24]: 19.2%; viability, T/C [25]: 6.28%; viability, T/C [26]: 6%; viability, T/C [27]: 7.45%; viability, T/C [28]: 7.98%; viability, T/C [29]: 5.89%; viability, T/C [30]: 3.91%; viability, T/C [31]: 2.28%; viability, T/C [32]: 1.55%; viability, T/C [33]: 1.77%; viability, T/C [34]: 1.89%; viability, T/C [35]: 1.41%; viability, T/C [36]: 0.66%

**Q.** What does the source list for `Cn1ncnc1[C@H]1c2n[nH]c(=O)c3cc(F)cc(c23)N[C@@H]1c1ccc(F)cc1` + COc1c(OCCCN2CCOCC2)ccc2c3n(c(=NC(=O)c4cnc(N)nc4)nc12)CCN3?
**A.** IC50 (second compound 0.00316 µM): > 100 nM; IC50 (second compound 0.01 µM): > 100 nM; IC50 (second compound 0.0316 µM): < 0.316 nM; IC50 (second compound 0.1 µM): < 0.316 nM; IC50 (second compound 0.316 µM): < 0.316 nM; IC50 (second compound 1 µM): < 0.316 nM; viability, T/C (second compound 0.00316 µM, first compound 0.000316 µM): 76.4%; viability, T/C (second compound 0.00316 µM, first compound 0.001 µM): 77%; viability, T/C (second compound 0.00316 µM, first compound 0.00316 µM): 75.6%; viability, T/C (second compound 0.00316 µM, first compound 0.01 µM): 82.9%; viability, T/C [1]: 77.6%; viability, T/C [2]: 70.5%; viability, T/C (second compound 0.01 µM, first compound 0.000316 µM): 52%; viability, T/C (second compound 0.01 µM, first compound 0.001 µM): 56.6%; viability, T/C (second compound 0.01 µM, first compound 0.00316 µM): 61.1%; viability, T/C (second compound 0.01 µM, first compound 0.01 µM): 54.8%; viability, T/C [7]: 64.2%; viability, T/C [8]: 58.1%; viability, T/C (second compound 0.0316 µM, first compound 0.000316 µM): 33.7%; viability, T/C (second compound 0.0316 µM, first compound 0.001 µM): 35.3%; viability, T/C (second compound 0.0316 µM, first compound 0.00316 µM): 33.7%; viability, T/C (second compound 0.0316 µM, first compound 0.01 µM): 37.1%; viability, T/C [13]: 34.1%; viability, T/C [14]: 36.5%; viability, T/C (second compound 0.1 µM, first compound 0.000316 µM): 25.1%; viability, T/C (second compound 0.1 µM, first compound 0.001 µM): 22.2%; viability, T/C (second compound 0.1 µM, first compound 0.00316 µM): 26.5%; viability, T/C (second compound 0.1 µM, first compound 0.01 µM): 23.1%; viability, T/C [19]: 23.2%; viability, T/C [20]: 22.6%; viability, T/C (second compound 0.316 µM, first compound 0.000316 µM): 5.23%; viability, T/C (second compound 0.316 µM, first compound 0.001 µM): 5.9%; viability, T/C (second compound 0.316 µM, first compound 0.00316 µM): 5.66%; viability, T/C (second compound 0.316 µM, first compound 0.01 µM): 5.44%; viability, T/C [25]: 5.95%; viability, T/C [26]: 5.09%; viability, T/C (second compound 1 µM, first compound 0.000316 µM): 1.25%; viability, T/C (second compound 1 µM, first compound 0.001 µM): 1.22%; viability, T/C (second compound 1 µM, first compound 0.00316 µM): 1.38%; viability, T/C (second compound 1 µM, first compound 0.01 µM): 1.16%; viability, T/C [31]: 1.33%; viability, T/C [32]: 1.04%
